Structures can show the parent of a compound that is named as a salt. Where two headings read alike, the source gives them in different places.
Experiments:
[1] = molecular target: T1, BRAFV600E full-length (amino acids 2-766) (Homo sapiens, UniProt P15056, V600E); test: B-Raf Accelerated MEK ATPase assay (BRAMA); assay type: biochemical
T1 construct: His6-tagged BRAFV600E full-length (amino acids 2-766); His6; made in house; host or cells: baculovirus expression system (insect cells)
Outline: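 Coupled-enzyme readout: ADP generated by MEK-mediated ATP hydrolysis, uncoupled from ERK phosphorylation, is linked to NADH oxidation through pyruvate kinase and lactate dehydrogenase.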

[2] = system: Human colon tumor cells (Colo205); test: Cell growth inhibition assay (CellTiter-Glo), Colo205; assay type: cell-based
Outline: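 Luminescent ATP read-out (CellTiter-Glo) served as a proxy for cell number; percent growth inhibition was calculated against DMSO vehicle wells. Cells were treated for 3 days at 37 °C with serially diluted compound, 0.2% DMSO final.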

[3] = system: Human melanoma cancer cells (SK-MEL-28); test: Cell growth inhibition assay (CellTiter-Glo), SK-MEL-28; assay type: cell-based
[4] = B-Raf Activity, Table 1a, highest pIC50 for the one or more runs, categorized
[5] = B-Raf pIC50, Table 1b, later runs, average pIC50 for the one or more runs, categorized
[6] = COLO 205, 72 h, Table 2a, 3 days incubation, read-out: Activity in Colo205 Tumor Cells
[7] = SK-MEL-28, 72 h, Table 3a, 3 days incubation, read-out: Activity in SK-MEL-28 Tumor Cells
[8] = COLO 205, Table 2b, later runs, average for the one or more runs, categorized, read-out: IC50 for Colo205
[9] = SK-MEL-28, Table 3b, later runs, average for the one or more runs, categorized, read-out: IC50 for SK-MEL-28
[10] = Table 1b, later runs, average pIC50 for the one or more runs, categorized, read-out: B-Raf pIC50 (converted)

T1 sequence (P15056 2-766 V600E): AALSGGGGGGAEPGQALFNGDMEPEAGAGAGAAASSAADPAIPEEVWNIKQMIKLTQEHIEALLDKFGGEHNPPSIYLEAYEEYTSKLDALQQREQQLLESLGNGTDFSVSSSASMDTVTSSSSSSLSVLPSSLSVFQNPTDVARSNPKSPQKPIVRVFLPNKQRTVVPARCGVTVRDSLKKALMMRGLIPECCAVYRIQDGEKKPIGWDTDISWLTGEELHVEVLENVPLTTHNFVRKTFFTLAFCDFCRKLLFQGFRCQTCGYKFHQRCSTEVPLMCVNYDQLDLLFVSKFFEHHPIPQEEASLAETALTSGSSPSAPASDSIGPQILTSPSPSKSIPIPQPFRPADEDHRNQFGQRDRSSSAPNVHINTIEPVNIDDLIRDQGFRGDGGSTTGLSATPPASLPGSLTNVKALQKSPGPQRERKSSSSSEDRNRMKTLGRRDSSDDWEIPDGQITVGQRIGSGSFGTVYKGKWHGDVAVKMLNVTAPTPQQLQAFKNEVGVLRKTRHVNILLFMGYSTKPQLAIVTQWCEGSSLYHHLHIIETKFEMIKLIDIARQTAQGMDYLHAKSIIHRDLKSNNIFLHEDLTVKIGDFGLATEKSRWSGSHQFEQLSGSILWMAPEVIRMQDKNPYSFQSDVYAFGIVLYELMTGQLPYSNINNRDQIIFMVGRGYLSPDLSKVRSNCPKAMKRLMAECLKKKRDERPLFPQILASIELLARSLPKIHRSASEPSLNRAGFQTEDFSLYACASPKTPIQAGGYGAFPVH

Structure (SMILES)	IC50 [1, 4] [nM]	IC50 [1, 5] [nM]	IC50 [2, 6] [nM]	IC50 [3, 7] [nM]	IC50 [2, 8] [nM]	IC50 [3, 9] [nM]	IC50 [1, 10] [nM]	IC50 [1] [nM]
CC(C)c1nc(-c2ccc(F)c(NS(=O)(=O)c3cn(C)cn3)c2)c(-c2ccnc(NCCCS(C)(=O)=O)n2)s1 [Example 36, N-{2-Fluoro-5-[2-(1-methylethyl)-5-(2-{[3-(methylsulfonyl)propyl]amino}-4-pyrimidinyl)-1,3-thiazol-4-yl]phenyl}-1-methyl-1H-imidazole-4-sulfonamide]	100 to 1000	31.6 to 1000	> 1000	> 1000				
CC(C)(C)c1nc(-c2cccc(NS(=O)(=O)c3ccccc3F)c2F)c(-c2ccnc(N)n2)s1 [Example 54, N-{3-[5-(2-Amino-4-pyrimidinyl)-2-(1,1-dimethylethyl)-1,3-thiazol-4-yl]-2-fluorophenyl}-2-fluorobenzenesulfonamide]	< 100	≤ 3.16	< 100	< 100	< 100	< 100		
CC(C)Nc1nccc(-c2sc(N3CCOCC3)nc2-c2cccc(NS(=O)(=O)c3cc(F)ccc3F)c2F)n1 [Example 83, 2,5-Difluoro-N-{2-fluoro-3-[5-{2-[(1-methylethyl)amino]-4-pyrimidinyl}-2-(4-morpholinyl)-1,3-thiazol-4-yl]phenyl}benzenesulfonamide]	< 100	≤ 3.16	< 100	< 100	< 100	< 100		
CC(C)c1nc(-c2ccc(F)c(NS(=O)(=O)c3cc(F)ccc3F)c2)c(-c2ccnc(NCC3CCN(C(=O)OC(C)(C)C)CC3)n2)s1 [Example 127]	< 100	31.6 to 1000	> 1000	> 1000	1000 to 10000	1000 to 10000		
CC(C)c1nc(-c2cccc(NS(=O)(=O)c3cc(F)ccc3F)c2F)c(-c2ccnc(NCCCN3CCCC3=O)n2)s1 [Example 185]	< 100	≤ 3.16	< 100	< 100	< 100	< 100		
CC(C)c1nc(-c2ccc(F)c(NS(=O)(=O)c3ccco3)c2)c(-c2ccnc(NCCS(C)(=O)=O)n2)s1 [Example 34, N-{2-Fluoro-5-[2-(1-methylethyl)-5-(2-{[2-(methylsulfonyl)ethyl]amino}-4-pyrimidinyl)-1,3-thiazol-4-yl]phenyl}-2-furansulfonamide trifluoroacetic acid salt]	< 100		> 1000	> 1000	1000 to 10000	1000 to 10000	3.16 to 31.6	
CC(C)(C)c1nc(-c2cccc(NS(=O)(=O)c3cc(F)ccc3F)c2F)c(-c2ccnc(NCC3CCCO3)n2)s1 (centres unmarked) [Example 213]	< 100	≤ 3.16	< 100	< 100	< 100	< 100		
CS(=O)(=O)N1CCC(Nc2nccc(-c3sc(N4CCOCC4)nc3-c3cccc(NS(=O)(=O)c4ccco4)c3F)n2)CC1 [Example 41, N-{2-Fluoro-3-[5-(2-{[1-(methylsulfonyl)-4-piperidinyl]amino}-4-pyrimidinyl)-2-(4-morpholinyl)-1,3-thiazol-4-yl]phenyl}-2-furansulfonamide]	< 100	≤ 3.16	< 100	< 100	< 100	100 to 1000		
CC(C)CNc1nccc(-c2sc(N3CCOCC3)nc2-c2cccc(NS(=O)(=O)c3cccnc3)c2F)n1 [Example 45, N-{2-Fluoro-3-[5-{2-[(2-methylpropyl)amino]-4-pyrimidinyl}-2-(4-morpholinyl)-1,3-thiazol-4-yl]phenyl}-3-pyridinesulfonamide]	< 100	≤ 3.16	100 to 1000	100 to 1000	100 to 1000	100 to 1000		
Nc1nccc(-c2oc(N3CCCC3)nc2-c2cccc(NS(=O)(=O)c3c(F)cccc3F)c2)n1 [Example 110, N-{3-[5-(2-Amino-4-pyrimidinyl)-2-(1-pyrrolidinyl)-1,3-oxazol-4-yl]phenyl}-2,6-difluorobenzenesulfonamide]	100 to 1000	31.6 to 1000			1000 to 10000	1000 to 10000		
Nc1nccc(-c2sc(N3CCS(=O)(=O)CC3)nc2-c2cccc(NS(=O)(=O)c3c(F)cccc3F)c2F)n1 [Example 102, N-{3-[5-(2-Amino-4-pyrimidinyl)-2-(1,1-dioxido-4-thiomorpholinyl)-1,3-thiazol-4-yl]-2-fluorophenyl}-2,6-difluorobenzenesulfonamide]	< 100		100 to 1000	100 to 1000	100 to 1000	100 to 1000	3.16 to 31.6	
CC(C)c1nc(-c2ccc(F)c(NS(=O)(=O)c3c(F)cccc3F)c2)c(-c2ccnc(NCCCN(C)C)n2)s1 [Example 163]			> 1000	> 1000	1000 to 10000			> 1000
O=S(=O)(Nc1cccc(-c2nc(N3CCOCC3)sc2-c2ccncn2)c1F)c1cc(F)ccc1F [Example 227, 2,5-difluoro-N-{2-fluoro-3-[2-(4-morpholinyl)-5-(4-pyrimidinyl)-1,3-thiazol-4-yl]phenyl}benzenesulfonamide]		≤ 3.16			< 100	< 100		
CNc1nccc(-c2sc(C(C)C)nc2-c2ccc(F)c(NS(=O)(=O)c3c(F)cccc3F)c2)n1 [Example 119]	100 to 1000	31.6 to 1000	> 1000	> 1000		1000 to 10000		
CC(C)(C)c1nc(-c2cccc(NS(=O)(=O)c3cccc(F)c3)c2F)c(-c2ccncn2)s1 [Example 223, N-{3-[2-(1′-dimethylethyl)-5-(4-pyrimidinyl)-1,3-thiazol-4-yl]-2-fluorophenyl}-3-fluorobenzenesulfonamide]		≤ 3.16			< 100	< 100		
Nc1nccc(-c2sc(N3CCOCC3)nc2-c2cccc(NS(=O)(=O)N3CCCCC3)c2F)n1 [Example 49, N-{3-[5-(2-Amino-4-pyrimidinyl)-2-(4-morpholinyl)-1,3-thiazol-4-yl]-2-fluorophenyl}-1-piperidinesulfonamide]	100 to 1000	31.6 to 1000	100 to 1000	100 to 1000	100 to 1000	100 to 1000		
CC(C)c1nc(-c2ccc(F)c(NS(=O)(=O)c3cc(F)ccc3F)c2)c(-c2ccnc(NCCS(C)(=O)=O)n2)s1 [Example 201]	< 100	≤ 3.16	< 100	< 100	< 100	< 100		
CC(C)CNc1nccc(-c2sc(N3CCOCC3)nc2-c2ccc(F)c(NS(=O)(=O)c3cc(F)ccc3F)c2)n1 [Example 139]	< 100		< 100	< 100	100 to 1000	100 to 1000	3.16 to 31.6	
CC(C)c1nc(-c2cccc(NS(=O)(=O)c3cccnc3)c2)c(-c2ccnc(NCCS(C)(=O)=O)n2)s1 [Example 33, N-{3-[2-(1-Methylethyl)-5-(2-{[2-(methylsulfonyl)ethyl]amino}-4-pyrimidinyl)-1,3-thiazol-4-yl]phenyl}-3-pyridinesulfonamide]	< 100	≤ 3.16	< 100	< 100	< 100	< 100		

— US7994185B2, “Benzene sulfonamide thiazole and oxazole compounds” (Glaxo Smith Kline LLC, priority 2008, dated 2011)
